According to ChEMBL document CHEMBL5537113, “Discovery of 1,2-diaryl-3-oxopyrazolidin-4-carboxamides as a new class of MurA enzyme inhibitors and characterization of their antibacterial activity” (Eur J Med Chem, 2023):

Tests used:
Clostridioides difficile [1] = test: Selectivity ratio of MBC for antibacterial activity against Clostridioides difficile ATCC 43255 to MIC for antibacterial activity against Clostridioides difficile […]; type: functional
[2] = system: UDP-N-acetylglucosamine 1-carboxyvinyltransferase (Escherichia coli K-12), P0A749 [C115D]; test: Inhibition of Escherichia coli MurA C115D mutant using UNAG as substrate pre incubated for 15 mins followed by substrate addition and measured after 15 mins by microplate reader analysis; details: time 30.0 min
Clostridioides difficile [3] = test: Selectivity ratio of MBC for antibacterial activity against Clostridioides difficile NR-49284 to MIC for antibacterial activity against Clostridioides difficile NR-49284; type: functional
[4] = Stability of compound in Staphylococcus aureus Newman cell lysate at 10 uM incubated for 24 hrs at 37 degC by UHPLC-MS/MS analysis; type: ADME, subcellular
Staphylococcus aureus [5] = test: Antibacterial activity against methicillin resistant Staphylococcus aureus USA300 assessed as reduction in microbial growth by CLSI based broth microdilution method; type: functional
Clostridioides difficile [6] = test: Antibacterial activity against Clostridioides difficile NR-49282 assessed as reduction in microbial growth incubated for 48 hrs by broth microdilution method; type: functional
[7] = Drug uptake in Escherichia coli harboring tolC deletion mutant assessed per 1.6x10^9 cells at 10 uM incubated for 30 mins by LC analysis; type: ADME; details: 0.5 h
[8] = Drug uptake in Escherichia coli harboring tolC deletion mutant at 10 uM incubated for 30 mins by LC analysis; type: ADME; details: 0.5 h
Clostridioides difficile [9] = test: Antibacterial activity against Clostridioides difficile NR-49277 assessed as reduction in microbial growth incubated for 48 hrs by broth microdilution method; type: functional
Lactobacillus gasseri = test: Antibacterial activity against Lactobacillus gasseri HM 403 assessed as reduction in microbial growth incubated for 48 hrs by broth microdilution method; type: functional
Clostridioides difficile [10] = test: Antibacterial activity against Clostridioides difficile NR-49283 assessed as reduction in microbial growth incubated for 48 hrs by broth microdilution method; type: functional
Clostridioides difficile [11] = test: Selectivity ratio of MBC for antibacterial activity against Clostridioides difficile ATCC BAA1870 to MIC for antibacterial activity against Clostridioides difficile ATCC BAA1870; type: functional
Clostridioides difficile [12] = test: Antibacterial activity against Clostridioides difficile NR-49278 assessed as reduction in microbial growth incubated for 48 hrs by broth microdilution method; type: functional
Clostridioides difficile [13] = test: Selectivity ratio of MBC for antibacterial activity against Clostridioides difficile NR-32895 to MIC for antibacterial activity against Clostridioides difficile NR-32895; type: functional
Caco-2 [14] = test: Cytotoxicity against human Caco-2 cells assessed as reduction in cell viability at 64 ug/ml after 24 hrs by MTS assay; type: toxicity, cell-based; details: caco-2, 24 h, dose 64 µg/ml
Staphylococcus aureus [15] = test: Antibacterial activity against methicillin resistant Staphylococcus aureus NRS119 assessed as reduction in microbial growth by CLSI based broth microdilution method; type: functional
Clostridioides difficile [16] = test: Bactericidal activity against Clostridioides difficile ATCC 43255 assessed as reduction in microbial growth by broth microdilution method; type: functional
Escherichia coli = test: Antibacterial activity against Escherichia coli harboring tolC deletion mutant assessed as reduction in microbial growth incubated for 16 hrs by serial dilution method; type: functional
[17] = target: UDP-N-acetylglucosamine 1-carboxyvinyltransferase (Escherichia coli K-12, UniProt P0A749, C115D); test: Inhibition of Escherichia coli MurA C115D mutant at 50 uM using UNAG as substrate pre incubated for 15 mins followed by substrate addition and measured after 15 mins by microplate reader analysis relative to control
Caco-2 [18] = test: Cytotoxicity against human Caco-2 cells assessed as reduction in cell viability at > 128 ug/ml after 24 hrs by MTS assay; type: toxicity, cell-based; details: caco-2, 24 h, dose > 128 µg/ml

UDP-N-acetylglucosamine 1-carboxyvinyltransferase (Escherichia coli K-12), P0A749 [C115D], sequence (P0A749 whole entry C115D): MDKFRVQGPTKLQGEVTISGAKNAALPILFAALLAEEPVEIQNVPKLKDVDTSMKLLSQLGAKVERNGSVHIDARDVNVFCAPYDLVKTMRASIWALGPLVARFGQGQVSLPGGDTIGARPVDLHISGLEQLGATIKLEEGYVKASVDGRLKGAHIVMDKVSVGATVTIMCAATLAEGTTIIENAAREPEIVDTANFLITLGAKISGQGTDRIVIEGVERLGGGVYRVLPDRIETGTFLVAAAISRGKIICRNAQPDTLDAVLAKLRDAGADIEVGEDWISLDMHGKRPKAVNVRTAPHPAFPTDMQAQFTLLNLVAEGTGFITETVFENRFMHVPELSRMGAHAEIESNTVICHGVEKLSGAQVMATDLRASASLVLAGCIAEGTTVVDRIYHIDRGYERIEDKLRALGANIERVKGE
UDP-N-acetylglucosamine 1-carboxyvinyltransferase, sequence (P0A749 whole entry C115D): as above

Compound | Ratio (Clostridioides difficile [1]) | inhibition [2] | Ratio (Clostridioides difficile [3]) | Stability [4] | MIC (Staphylococcus aureus [5]) | MIC (Clostridioides difficile [6]) | Drug uptake [7] | Drug uptake [8] | MIC (Clostridioides difficile [9]) | MIC (Lactobacillus gasseri) | MIC (Clostridioides difficile [10]) | Ratio (Clostridioides difficile [11]) | MIC (Clostridioides difficile [12]) | Ratio (Clostridioides difficile [13]) | Activity (Caco-2 [14]) | MIC (Staphylococcus aureus [15]) | MBC (Clostridioides difficile [16]) | MIC (Escherichia coli) | IC50 [17] | Activity (Caco-2 [18])
O=C(Nc1ncc([N+](=O)[O-])s1)C1CN(c2cccc(Cl)c2)N(c2cccc(Cl)c2)C1=O (centres undefined) | 1 | 76% | 1 | Stable | 4 µg/mL | 0.5 µg/mL | 1.8 µM | 56 nM | 0.5 µg/mL | > 64 µg/mL | 0.5 µg/mL | 1 | 0.5 µg/mL | 1 | Non-Toxic | 1 µg/mL | 0.25 µg/mL | > 40 µM | 10.9 µM | 
O=C(Nc1ncc([N+](=O)[O-])s1)C1CN(c2ccc(Cl)cc2)N(c2ccc(Cl)cc2)C1=O (centres undefined) | 1 |  | 1 | Stable | 32 µg/mL | 0.5 µg/mL |  |  | 1 µg/mL | > 64 µg/mL | 0.5 µg/mL | 1 | 0.5 µg/mL | 1 |  | 64 µg/mL | 0.5 µg/mL | > 40 µM |  | Non-Toxic
